Laboratory results reported in patent US20240299591A1, “Antimicrobial Peptides and Their Use” (priority 2021, published 2024).
Entries after “also recorded” stand apart in the source; their conditions may differ. Where a SMILES comes first, the peptide text is derived from it. [ ]: non-standard residue; d: D form. The star is where a group is joined. X1 = CN1/C(=C/C=C(/C=C/C2=[N+](C)c3ccccc3C2(C)C)c2ccc(C(=O)*)cn2)C(C)(C)c2ccccc21

Tests used:
[1] = test system: Fusarium species; conditions: clinical isolates (Arikan et al., 2001); cited from earlier work
[2] = test system: Aspergillus species; conditions: cited from earlier work
[3] = test system: rabbit eye; test: Tolerability study on rabbit eyes in vivo; conditions: 10 µM, 50 µL into the right eye, three rabbits, observed 7 days
Description: Three rabbits (rabbits 1, 2 and 3) were tested. All rabbits appeared unaffected immediately post-treatment and through the next 7 days with no signs of irritation and no change in general condition. MFIGAF001a was used at 10 µM and 50 µL and was admitted into the right eye of the rabbits.

[4] = test system: A. fumigatus; test: Live cell imaging in pig corneal infection model; set-up: species or system Aspergillus fumigatus; dose or concentration left out as unconfirmed; conditions: 15 min incubation at 37° C.
Description: MFIGAF001a in a pig corneal infection model was investigated (FIG. 12).
Porcine corneal was infected with A. fumigatus using the same method described above (Biological Example 8). After confirming the success of infection, 1 drop of MFIGAF001 solution in water (2.5 μM) was added topically to the corneal surface and incubated for 15 min at 37° C. before confocal microscopy.

[5] = test system: A. fumigatus and S. aureus; test: Live cell imaging in pig corneal infection model co-infected by A. fumigatus and S. aureus; conditions: 2.5 μM, 15 min incubation at 37° C., co-infected 48 h
Description: The labelled compound can be used to distinguish fungus from S. aureus when using confocal microscopy based on assessing the morphology of the areas of fluorescence. The fungal hyphea can be observed and identified based on its characteristic filamentous shape, and its much larger size compared to the bacteria which appears to be much smaller and having a dotted shape.

[6] = test system: C. albicans, F. oxysporum, A. fumigatus, and C. neoformans; test: Live cell imaging, fluorescent labelling of pathogenic fungi; format: cell-based; set-up: dose or concentration left out as unconfirmed; conditions: 15 min incubation at 37° C. in RPMI
Description: The N. crassa mat A WT used for confocal live-cell imaging was grown on 100% Vogel's agar medium at 25° C. for 3-5 days before the spores were harvested. The A. fumigatus CEA10 strain used for confocal live-cell imaging was grown on 100% Vogel's medium at 37° C. for 4-5 days before the spores were harvested. Before the confocal experiments were performed, N. crassa spores were incubated in eight-well slide culture chambers for 3 h at 25° C. in liquid 10% Vogel's medium and A. fumigatus spores were incubated for 16 h at 25° C. in liquid 10% Vogel's medium in order to allow germination to fully take place for imaging.
Live-cell imaging of germinated fungi spores was performed using a Leica TCS SP8 confocal laser scanning microscope equipped with photo multiplier tubes (PMT), hybrid GaAsP (HyD) detectors and a 63× water immersion objective. A Leica turntable white light laser (WLL, 450-750 nm), argon laser (458 nm, 476 nm, 488 nm and 496 nm) and UV laser (405 nm) were used for fluorescence excitation.
The major pathogenic fungi include C. albicans, F. oxysporum, A. fumigatus, and C. neoformans.

[7] = test system: P. aeruginosa; test: Live cell imaging with P. aeruginosa; format: cell-based; conditions: 2.5 μM, 37° C. in RPMI, 1 h
[8] = test system: Aspergillus fumigatus; format: cell-based; conditions: Conidia (10% Vogel's), 37° C., 24 h
Description: The assays were performed using Nunc 262162 U96 polystyrene round bottomed clear plates (www.nuncbrand.com).
(§1) When testing the peptides against A. fumigatus, peptides at different concentrations were mixed with A. fumigatus conidia to reach a final volume of 100 μL per well. The final conidial concentration was 5×10^5 cells/mL in 10% Vogel's medium. After 24 h of incubation at 37° C. in 96 well plates, fungal growth with the different peptide concentrations was determined by measurement of the optical density at 610 nm in a TriStar LB 941 Multimode Microplate Reader. The IC50 values were determined using four parameter logistic regression formula provided by Sigma Plot 10.0. Values are represented as means±SEM from two independent experiments (n=3).
(§2) The IC50 of the fluorescently labelled peptides cannot be accurately determined using the optical density method described in the last section. This is because the fluorophore structures absorbed light at 610 nm which was the wavelength used for the optical density measurements. In order to overcome this, the BacTiter-Glo™ Microbial Cell Viability Assay kit purchased from Promega was used. The BacTiter-Glo™ Reagent relies on the properties of a proprietary thermostable luciferase (Ultra-Glo™ Recombinant Luciferase) and a proprietary formulation for extracting ATP from fungal cells which will generates a ‘glow-type’ luminescent signal. This is produced by the luciferase reaction shown in Scheme 1, which has a signal half-life of over 30 min depending on the experimental conditions. The luminescent signal is proportional to the amount of ATP present, which is directly proportional to the number of living cells in culture.
(§3) The IC50 assays for all fluorescently labelled peptides were performed using Greiner CELLSTAR white polystyrene wells flat bottomed 96 well plates. The incubation conditions remained the same for the optical density measurement described in the previous section. Once the incubation procedure was finished, the plate was equilibrated to room temperature. A mixture of BacTiter-Glo™ buffer and substrate was then added to the plate (100 μL per well). The plate was shaken for 5 min and read using the Tristar […] luminometer. Data analysis was performed using Sigma Plot 10.0. All values shown are presented as means±SEM from two independent experiments (n=3).

[9] = test system: reconstructed cornea-like epithelium (RhCE, EpiOcular™); test: Viability of reconstructed cornea-like epithelium (eye irritation model); format: cell-based; conditions: RhCE, EpiOcular™
Description: (§4) FIG. 4a is a graph of the viability reconstructed cornea-like epithelium (RhCE, EpiOcular™) after incubation with MFIGA001. NC=Negative Control; PC=Positive Control. FIG. 4b is a graph of the viability reconstructed cornea-like epithelium (RhCE, EpiOcular™) after incubation with 10 µM of MFIGA001a and MFIGAF001b. NC=Negative Control; PC=Positive Control; A2=MFIGAF001a; and B1=MFIGAF001b.
(§5) MFIGAF001 was also assessed independently by a CRO (Evotec) in an OECD compliant reconstructed cornea-like epithelial cell model (RhCE, EpiOcular™).

[10] = as above; format: cell-based; conditions: human, reconstructed cornea-like epithelium (RhCE, EpiOcular™); 10 μM; read-out: Mean of Viabilities (%)
Description: as §4, §5

[11] = test system: Human Red Blood Cells (HRBCs); test: Haemolytic activity in human red blood cells; conditions: 10 μM, 37° C., 1 h
Description: Molecules, DMSO (as positive control) and PBS (as negative control) were incubated with human RBCs at 37° C. and their viability was assessed after 1 h.
Erythrocytes were isolated from freshly drawn, anticoagulated human blood and diluted in PBS (1:5). An amount of 50 μl of erythrocyte suspension was added to 50 μl of compounds at 10 µM. DMSO was used as positive control and PBS as negative control. The plate was incubated at 37° C. for 1 h, each well was diluted with 150 μl of PBS and the plate was centrifuged at 1,200 g for 15 min. A total of 100 μl of the supernatant from each well was transferred to a fresh plate, and the absorbance at 350 nm was measured in a microplate reader. Data is represented as % of cell viability as means from three independent experiments with n=3.

[12] = test system: S. aureus; test: Live cell imaging with S. aureus; format: cell-based, Staphylococcus aureus; conditions: 2.5 µM, 20 min incubation at 37° C. in RPMI
Description: MFIGAF001a labels gram positive bacteria Staphylococcus aureus. (FIG. 14).

[13] = test system: Fusarium oxysporum; format: cell-based; conditions: Conidia (10% Vogel's), 35° C., 24 h
Description: Dose dependent inhibition of fungal growth by all non-labelled peptides (indicated by IC50 values) was determined via this methodology. The assays were performed using Nunc 262162 U96 polystyrene round bottomed clear plates (www.nuncbrand.com).
as §1
When testing the peptides against N. crassa and F. oxysporum, experiments were carried as described above apart from the incubation temperature was changed to 25° C. for N. crassa and 35° C. for F. oxysporum.
as §2, §3

[14] = test system: A. fumigatus; test: Live cell imaging of A. fumigatus in co-cultures with A549; format: cell-based, Aspergillus fumigatus; conditions: 2.5 µM, 10 min after addition, 37° C. in RPMI
[15] = test system: Aspergillus fumigatus; format: cell-based; conditions: Conidia (RPMI), 37° C., 24 h

For CC[C@H](C)C[C@H](C)CCCCCCCCC(=O)N[C@H]1C[C@@H](O)[C@@H](NCCN)NC(=O)[C@@H]2[C@@H](O)CCN2C(=O)[C@H]([C@H](O)CCN)NC(=O)[C@H]([C@H](O)[C@@H](O)c2ccc(O)cc2)NC(=O)[C@@H]2C[C@@H](O)CN2C(=O)[C@H]([C@@H](C)O)NC1=O [Caspofungin], the “Activity against Fusarium species (MIC testing)” value [1] is listed as “not particularly active” and the “MICs against Aspergillus clinical isolates” value [2] is listed as “moderate MICs”.

For CN1/C(=C/C=C(/C=C/C2=[N+](C)c3ccccc3C2(C)C)c2ccc(C(=O)NCCCC[C@@H]3NC(=O)[C@H](Cc4c[nH]c5ccccc45)NC(=O)[C@H](Cc4ccccc4)NC(=O)[C@H](Cc4c[nH]c5ccccc45)NC(=O)[C@@H](Cc4ccccc4)NC(=O)[C@H](CCCCN)NC(=O)[C@H](CCCCN)NC(=O)[C@H](CCCNC(=N)N)NC(=O)CNC3=O)cn2)C(C)(C)c2ccccc21 [MFIGAF001a, Cyclo(Arg-Lys-Lys-phe-Trp-Phe-Trp-Lys(Cy5)-Gly)] (cyclo(FWK(X1)GRKK[dF]W)), the “Tolerability / eye irritation in rabbit eye” value [3] was “no eye irritation; also recorded: well tolerated”, the “Selective labelling of A. fumigatus over porcine corneal tissue” value [4] was “selectively labelled A. fumigatus” and the “Differentiation of fungus from S. aureus by morphology of fluorescence” value [5] was “can be used to differentiate fungal keratitis and gram positive bacterial keratitis”. The “Fluorescent labelling of pathogenic fungi” value [6] was “label all major pathogenic fungi that cause fungal keratitis; also recorded: rapid and highly fluorogenic labelling”, the “Selectivity over gram negative bacteria Pseudomonas (labelling)” value [7] was “great selectivity” and the “IC50 Aspergillus fumigatus” value [8] was 1.3 µg/mL. The “Toxicity, reconstructed cornea-like epithelium (FIG. 4)” value [9] was “no obvious toxicity”, the viability at 10 µM [10] was 98% and the “Haemolytic activity against HRBCs” value [11] was “no haemolytic activity”. For the same molecule, the “Labelling of gram positive bacteria Staphylococcus aureus” value [12] was “labels”, the “IC50 Fusarium oxysporum” value [13] was 1.5 µg/mL and the “Selective labelling of A. fumigatus over A549” value [14] was “selectively labels A. fumigatus over A549 cell”.

In the case of C[C@@H]1C/C=C/C=C/C=C/C=C/[C@H](O[C@@H]2O[C@H](C)[C@@H](O)[C@H](N)[C@@H]2O)C[C@@H]2O[C@](O)(C[C@@H](O)C[C@H]3O[C@@H]3/C=C/C(=O)O1)C[C@H](O)[C@H]2C(=O)O [Natamycin], the “IC99 Aspergillus fumigatus” value [15] is reported as 39 mg/L.
